Data as given in patent publication US11655217B2, “Pyrazole MAGL inhibitors” (H. Lundbeck A/S, priority 2017, dated 2023).

Each compound was assayed against MAGL (Mus musculus (Mouse), UniProt O35678) (assay: Mouse brain proteomes from inhibitor treated mice (oral gavage, sacrificed 4 h after administration, ABPP analysis)). Conditions: 5 mg/kg oral gavage.
Chain of MAGL (O35678 whole entry): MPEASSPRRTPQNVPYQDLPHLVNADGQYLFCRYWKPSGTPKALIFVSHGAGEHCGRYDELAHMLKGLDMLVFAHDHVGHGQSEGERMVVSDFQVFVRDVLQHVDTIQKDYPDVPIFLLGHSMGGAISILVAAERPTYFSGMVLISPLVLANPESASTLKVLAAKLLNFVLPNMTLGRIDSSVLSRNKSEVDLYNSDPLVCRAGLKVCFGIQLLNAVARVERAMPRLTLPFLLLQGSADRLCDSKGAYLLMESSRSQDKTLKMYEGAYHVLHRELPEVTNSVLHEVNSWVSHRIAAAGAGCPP
Experimental: Preparation of Mouse Brain Proteomes from Inhibitor Treated Mice.
Inhibitors were administered to wild-type C57Bl/6J by oral gavage in a vehicle of polyethylene glycol.
With O=C(O)c1nn(C(=O)N2CCC3(CCN(Cc4cccc(Cl)c4C(F)(F)F)C3)CC2)cc1Cl [Example 26, 4-Chloro-1-(2-(3-chloro-2-(trifluoromethyl)benzyl)-2,8-diazaspiro[4.5]decane-8-carbonyl)-1H-pyrazole-3-carboxylic Acid] the “MAGL % inh. 5 mg/kg (mouse)” value was “D (% inhibition is greater than or equal to 0% and less than 25%)”.
For NC(=O)c1ccn(C(=O)N2CC3CN(Cc4ccc(C5(C(=O)O)CCOCC5)cc4C(F)(F)F)CC3C2)n1 (centres unmarked) [Example 35, 4-(4-((5-(3-carbamoyl-1H-pyrazole-1-carbonyl)hexahydropyrrolo[3,4-c]pyrrol-2(1H)-yl)methyl)-3-(trifluoromethyl)phenyl)tetrahydro-2H-pyran-4-carboxylic acid], the “MAGL % inh. 5 mg/kg (mouse)” value was “D (% inhibition is greater than or equal to 0% and less than 25%)”.
For CC(C)c1cccc(O[C@H]2C[C@@H]3CN(C(=O)n4ccc(C(=O)O)n4)C[C@@H]3C2)c1 [Example 220, 1-(trans-5-(3-isopropylphenoxy)ocatahydrocyclo-penta[c]pyrrole-2-carbonyl)-1H-pyrazole-3-carboxylic acid], the “MAGL % inh. 5 mg/kg (mouse)” value was “C (% inhibition is greater than or equal to 25% and less than 50%)”.
For O=C(O)c1ccn(C(=O)N2C[C@H]3C[C@H](Oc4cc(Cl)cc(Cl)c4)C[C@H]3C2)n1 [Example 230, 1-(trans-5-(3,5-dichlorophenoxy)octahydrocyclo-penta[c]pyrrole-2-carbonyl)-1H-pyrazole-3-carboxylic acid], the “MAGL % inh. 5 mg/kg (mouse)” value was “D (% inhibition is greater than or equal to 0% and less than 25%)”.
With O=C(O)c1ccn(C(=O)N2C[C@H]3C[C@H](Oc4cccc(-c5cccnc5)c4)C[C@H]3C2)n1 [Example 241, 1-(trans-5-(3-(pyridin-3-yl)phenoxy)octa-hydrocyclopenta-[c]pyrrole-2-carbonyl)-1H-pyrazole-3-carboxylic acid] the “MAGL % inh. 5 mg/kg (mouse)” value was “D (% inhibition is greater than or equal to 0% and less than 25%)”.
In the case of Cc1cc(-c2ccccc2)ccc1CN1CCN(C(=O)n2ccc(C(=O)O)n2)[C@H](C)C1 [Example 245, (R)-1-(2-methyl-4-((3-methyl-[1,1′-biphenyl]-4-yl)methyl)piperazine-1-carbonyl)-1H-pyrazole-3-carboxylic acid], the “MAGL % inh. 5 mg/kg (mouse)” value was “D (% inhibition is greater than or equal to 0% and less than 25%)”.
In the case of Cc1ccc(Oc2cccc(CN3CCN(C(=O)n4ccc(C(=O)O)n4)CC3)c2)cc1 [Example 251, 1-(4-(3-(p-tolyloxy)benzyl)piperazine-1-carbonyl)-1H-pyrazole-3-carboxylic acid], the “MAGL % inh. 5 mg/kg (mouse)” value was “D (% inhibition is greater than or equal to 0% and less than 25%)”.
Cc1cn(C(=O)N2C[C@H]3C[C@H](OCc4cc(F)cc(Cl)c4)C[C@H]3C2)nc1C(=O)O [Example 252, 1-(trans-5-((3-chloro-5-fluorobenzyl)oxy)octahydrocyclo-penta[c]pyrrole-2-carbonyl)-4-methyl-1H-pyrazole-3-carboxylic acid] was tested, and the “MAGL % inh. 5 mg/kg (mouse)” value was “D (% inhibition is greater than or equal to 0% and less than 25%)”.
C[C@@H]1C[C@H](N(C)Cc2cccc(C(F)(F)F)c2)CCN1C(=O)n1ccc(C(N)=O)n1 [Example 257, 1-((2R,4R)-2-methyl-4-(methyl(3-(trifluoromethyl)benzyl)amino)piperidine-1-carbonyl)-1H-pyrazole-3-carboxamide] was tested, and the “MAGL % inh. 5 mg/kg (mouse)” value was “A (% inhibition is greater than or equal to 75%)”.
For C[C@@H]1C[C@@H](N(C)Cc2cccc(C(F)(F)F)c2)CCN1C(=O)n1ccc(C(N)=O)n1 [Example 260, 1-((2R,4S)-2-methyl-4-(methyl(3-(trifluoromethyl)benzyl)amino)piperidine-1-carbonyl)-1H-pyrazole-3-carboxamide], the “MAGL % inh. 5 mg/kg (mouse)” value was “A (% inhibition is greater than or equal to 75%)”.
With C[C@@H]1CN(Cc2ccc(-c3ccccc3)cc2Cl)CCN1C(=O)n1ccc(C(=O)O)n1 [Example 291, (R)-1-(4-((3-chloro-[1,1′-biphenyl]-4-yl)methyl)-2-methylpiperazine-1-carbonyl)-1H-pyrazole-3-carboxylic acid] the “MAGL % inh. 5 mg/kg (mouse)” value was “C (% inhibition is greater than or equal to 25% and less than 50%)”.
In the case of O=C(O)c1ccn(C(=O)N2CCC(Oc3ccc(C(F)(F)F)cc3N3CCCC3)CC2)n1 [Example 307, 1-(4-(2-(pyrrolidin-1-yl)-4-(trifluoromethyl)phenoxy)piperidine-1-carbonyl)-1H-pyrazole-3-carboxylic acid], the “MAGL % inh. 5 mg/kg (mouse)” value was “D (% inhibition is greater than or equal to 0% and less than 25%)”.
For O=C(O)c1ccn(C(=O)N2CCC(Oc3cc(N4CCCC4)cc(C(F)(F)F)c3)CC2)n1 [Example 308, 1-(4-(3-(pyrrolidin-1-yl)-5-(trifluoromethyl)phenoxy)piperidine-1-carbonyl)-1H-pyrazole-3-carboxylic acid], the “MAGL % inh. 5 mg/kg (mouse)” value was “D (% inhibition is greater than or equal to 0% and less than 25%)”.
For C[C@H]1CN(Cc2cccc(Oc3ccc(Cl)cc3)c2)CCN1C(=O)n1ccc(C(=O)O)n1 [Example 311, (S)-1-(4-(3-(4-chlorophenoxy)benzyl)-2-methylpiperazine-1-carbonyl)-1H-pyrazole-3-carboxylic acid], the “MAGL % inh. 5 mg/kg (mouse)” value was “D (% inhibition is greater than or equal to 0% and less than 25%)”.
With C[C@@H]1CN(Cc2ccc(C(F)(F)F)cc2N2CCCC2)CCN1C(=O)n1ccc(C(=O)O)n1 [Example 327, (R)-1-(2-methyl-4-(2-(pyrrolidin-1-yl)-4-(trifluoromethyl)benzyl)piperazine-1-carbonyl)-1H-pyrazole-3-carboxylic acid] the “MAGL % inh. 5 mg/kg (mouse)” value was “D (% inhibition is greater than or equal to 0% and less than 25%)”.
With C[C@H]1CN(Cc2ccc(C(F)(F)F)cc2N2CCCC2)CCN1C(=O)n1ccc(C(=O)O)n1 [Example 328, (S)-1-(2-methyl-4-(2-(pyrrolidin-1-yl)-4-(trifluoromethyl)benzyl)piperazine-1-carbonyl)-1H-pyrazole-3-carboxylic acid] the “MAGL % inh. 5 mg/kg (mouse)” value was “D (% inhibition is greater than or equal to 0% and less than 25%)”.
For O=C(O)c1ccn(C(=O)N2CCC3(CCN(Cc4cc(Cl)cc(Cl)c4Cl)C3)CC2)n1 [Example 337, 1-(2-(2,3,5-trichlorobenzyl)-2,8-diazaspiro[4.5]decane-8-carbonyl)-1H-pyrazole-3-carboxylic acid], the “MAGL % inh. 5 mg/kg (mouse)” value was “D (% inhibition is greater than or equal to 0% and less than 25%)”.
In the case of C[C@H]1CN(Cc2cc(F)cc(Oc3ccc(Cl)cc3)c2)CCN1C(=O)n1ccc(C(=O)O)n1 [Example 347, (S)-1-(4-(3-(4-chlorophenoxy)-5-fluorobenzyl)-2-methylpiperazine-1-carbonyl)-1H-pyrazole-3-carboxylic acid], the “MAGL % inh. 5 mg/kg (mouse)” value was “D (% inhibition is greater than or equal to 0% and less than 25%)”.
In the case of C[C@@H]1CC[C@@H](C)N1c1cc(C(F)(F)F)ccc1CN1CCN(C(=O)n2ccc(C(=O)O)n2)CC1 [Example 359, 1-(4-(2-((2R,5R)-2,5-dimethylpyrrolidin-1-yl)-4-(trifluoromethyl)benzyl)piperazine-1-carbonyl)-1H-pyrazole-3-carboxylic acid], the “MAGL % inh. 5 mg/kg (mouse)” value was “D (% inhibition is greater than or equal to 0% and less than 25%)”.
For C[C@H]1CC[C@H](C)N1c1cc(C(F)(F)F)ccc1CN1CCN(C(=O)n2ccc(C(=O)O)n2)CC1 [Example 360, 1-(4-(2-((2S,5S)-2,5-dimethylpyrrolidin-1-yl)-4-(trifluoromethyl)benzyl)piperazine-1-carbonyl)-1H-pyrazole-3-carboxylic acid], the “MAGL % inh. 5 mg/kg (mouse)” value was “D (% inhibition is greater than or equal to 0% and less than 25%)”.
CN(Cc1cc(N2CCCC2)cc(C(F)(F)F)c1)C1(C)CCN(C(=O)n2ccc(C(=O)O)n2)CC1 [Example 381, 1-(4-methyl-4-(methyl(3-(pyrrolidin-1-yl)-5-(trifluoromethyl)benzyl)amino)piper-idine-1-carbonyl)-1H-pyrazole-3-carboxylic acid] was tested, and the “MAGL % inh. 5 mg/kg (mouse)” value was “D (% inhibition is greater than or equal to 0% and less than 25%)”.
CN(Cc1cccc(C(F)(F)F)c1N1CCCC1)C1(C)CCN(C(=O)n2ccc(C(=O)O)n2)CC1 [Example 382, 1-(4-methyl-4-(methyl(2-(pyrrolidin-1-yl)-3-(trifluoromethyl)benzyl)amino)piper-idine-1-carbonyl)-1H-pyrazole-3-carboxylic acid] was tested, and the “MAGL % inh. 5 mg/kg (mouse)” value was “D (% inhibition is greater than or equal to 0% and less than 25%)”.
In the case of CN(Cc1cc(C(F)(F)F)ccc1N1CCCC1)C1(C)CCN(C(=O)n2ccc(C(=O)O)n2)CC1 [Example 384, 1-(4-methyl-4-(methyl(2-(pyrrolidin-1-yl)-5-(trifluoromethyl)benzyl)amino)piper-idine-1-carbonyl)-1H-pyrazole-3-carboxylic acid], the “MAGL % inh. 5 mg/kg (mouse)” value was “D (% inhibition is greater than or equal to 0% and less than 25%)”.
For CN(Cc1ccc(C(F)(F)F)c(N2CCCC2)c1)C1(C)CCN(C(=O)n2ccc(C(=O)O)n2)CC1 [Example 385, 1-(4-methyl-4-(methyl(3-(pyrrolidin-1-yl)-4-(trifluoromethyl)benzyl)amino)piper-idine-1-carbonyl)-1H-pyrazole-3-carboxylic acid], the “MAGL % inh. 5 mg/kg (mouse)” value was “D (% inhibition is greater than or equal to 0% and less than 25%)”.
O=C(O)c1nn(C(=O)N2CCC3(CCN(Cc4cc(Cl)cc(C(F)(F)F)c4)C3)CC2)cc1Cl [Example 388, 4-chloro-1-(2-(3-chloro-5-(trifluoromethyl)benzyl)-2,8-diazaspiro[4.5]decane-8-carbonyl)-1H-pyrazole-3-carboxylic acid] was tested, and the “MAGL % inh. 5 mg/kg (mouse)” value was “D (% inhibition is greater than or equal to 0% and less than 25%)”.
In the case of C[C@@H]1CN(Cc2ccc(C(F)(F)F)cc2N2C3CCC2COC3)CCN1C(=O)n1ccc(C(=O)O)n1 [Example 393, 1-((2R)-4-(2-(3-oxa-8-azabicyclo[3.2.1]octan-8-yl)-4-(trifluoromethyl)benzyl)-2-methylpiperazine-1-carbonyl)-1H-pyrazole-3-carboxylic acid], the “MAGL % inh. 5 mg/kg (mouse)” value was “D (% inhibition is greater than or equal to 0% and less than 25%)”.
